For test [1], the system named is HT-29. The test is described as follows: Antiproliferative activity against human HT29 cells after 48 hrs by MTT assay. The test is classed as functional, cell-based. The note with it: HT-29, 48 h. (Tetrazolium assays rely on reduction of a dye to a coloured formazan, in cell work by metabolically active cells.)
Test [2] can be described thus: Inhibition of human recombinant N-myristoyltransferase.

One may read the IC50 as the concentration that inhibits the measured activity by half.

For the molecule `COc1ccc(C(=S)NNC(=O)c2ccccc2)cc1`, the figures for the IC50 in test [1] and in test [2] were 0.0909 mM and 3.2 mM, respectively.

The record behind these values is ChEMBL document CHEMBL1149804, “Bioactivity of novel transition metal complexes of N'-[(4-methoxy)thiobenzoyl]benzoic acid hydrazide” (Eur J Med Chem, 2008).
